Assay results taken from article PMC5216056 (Nature Communications, 2017).
Where “and” joins values, the source holds several entries; their conditions need not be identical. Identical values can stand only once. Entries after “also recorded” stand apart in the source; their conditions may differ.

How the values were obtained:
PDGF = assay: CEREP panel; format: binding; conditions: 10 µM
P2Y = assay: CEREP panel; format: binding; conditions: 10 µM
A2A (h) = biological target: T1, A2A (h) (Homo sapiens, UniProt P29274); assay: CEREP panel; format: binding; conditions: read-out: % inhibition A2A (h)
T1 construct: CEREP
T1 sequence (P29274 whole entry): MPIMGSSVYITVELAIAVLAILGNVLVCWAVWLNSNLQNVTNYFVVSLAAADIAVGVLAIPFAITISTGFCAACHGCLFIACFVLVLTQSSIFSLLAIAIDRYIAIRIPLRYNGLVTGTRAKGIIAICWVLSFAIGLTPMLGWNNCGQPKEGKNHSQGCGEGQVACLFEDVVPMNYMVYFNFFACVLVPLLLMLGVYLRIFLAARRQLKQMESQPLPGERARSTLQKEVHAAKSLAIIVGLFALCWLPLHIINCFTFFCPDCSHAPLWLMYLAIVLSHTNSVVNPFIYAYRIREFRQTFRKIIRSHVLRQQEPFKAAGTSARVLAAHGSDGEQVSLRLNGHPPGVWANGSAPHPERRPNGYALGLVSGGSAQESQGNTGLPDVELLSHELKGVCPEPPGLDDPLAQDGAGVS

in vitro = conditions: C57BL6, mouse, hepatocytes
physchem = conditions: pH 6.5, aqueous buffer, thermodynamic from solid
MC4 (h) = biological target: T2, MC4 (h) (Homo sapiens, UniProt P32245); assay: CEREP panel; format: binding; conditions: read-out: % inhibition MC4 (h)
T2 construct: CEREP (contract assay)
T2 sequence (P32245 whole entry): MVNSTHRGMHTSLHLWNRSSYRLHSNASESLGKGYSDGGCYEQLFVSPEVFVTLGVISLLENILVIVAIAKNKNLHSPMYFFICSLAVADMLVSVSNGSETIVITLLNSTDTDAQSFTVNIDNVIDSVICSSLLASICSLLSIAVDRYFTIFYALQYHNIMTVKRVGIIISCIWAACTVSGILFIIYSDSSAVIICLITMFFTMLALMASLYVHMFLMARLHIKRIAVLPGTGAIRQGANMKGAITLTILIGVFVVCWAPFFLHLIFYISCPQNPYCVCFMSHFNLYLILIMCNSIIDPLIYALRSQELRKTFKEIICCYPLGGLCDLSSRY

BZD (peripheral) = biological target: T3, BZD (peripheral) (Rattus norvegicus, UniProt P16257); assay: CEREP panel; format: binding; conditions: read-out: % inhibition BZD (peripheral)
T3 construct: CEREP
T3 sequence (P16257 whole entry): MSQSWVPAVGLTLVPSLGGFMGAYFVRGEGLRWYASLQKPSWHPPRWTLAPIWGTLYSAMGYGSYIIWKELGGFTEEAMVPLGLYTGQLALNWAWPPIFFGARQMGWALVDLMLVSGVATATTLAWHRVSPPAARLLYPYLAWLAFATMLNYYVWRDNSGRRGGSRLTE

C57BL6/J mice [1] = assay: Triad assay: catalepsy; format: in vivo, mouse; conditions: 1-100 mg kg^−1 i.p., cumulative, mice
CB1 (h) = biological target: T4, CB1 (h) (Homo sapiens, UniProt P21554); assay: biochemical; format: binding; conditions: read-out: % inhibition CB1 (h)
T4 construct: CEREP (contract assay)
T4 sequence (P21554 whole entry): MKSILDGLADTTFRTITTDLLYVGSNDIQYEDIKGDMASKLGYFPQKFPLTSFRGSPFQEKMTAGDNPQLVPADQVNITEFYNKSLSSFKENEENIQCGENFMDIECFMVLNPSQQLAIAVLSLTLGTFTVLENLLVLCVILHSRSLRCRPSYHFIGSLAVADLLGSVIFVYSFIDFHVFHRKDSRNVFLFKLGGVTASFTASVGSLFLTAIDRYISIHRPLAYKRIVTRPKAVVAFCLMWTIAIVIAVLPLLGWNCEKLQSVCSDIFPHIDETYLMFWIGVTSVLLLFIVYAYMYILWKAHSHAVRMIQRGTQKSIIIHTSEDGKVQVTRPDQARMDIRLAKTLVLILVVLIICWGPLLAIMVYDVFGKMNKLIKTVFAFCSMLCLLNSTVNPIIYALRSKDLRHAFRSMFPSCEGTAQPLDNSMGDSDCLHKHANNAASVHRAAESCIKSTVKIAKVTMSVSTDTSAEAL

beta 2 (h) = biological target: T5, beta 2 (h) (Homo sapiens, UniProt P07550); assay: CEREP panel; format: binding; conditions: read-out: % inhibition beta 2 (h)
T5 construct: CEREP
T5 sequence (P07550 whole entry): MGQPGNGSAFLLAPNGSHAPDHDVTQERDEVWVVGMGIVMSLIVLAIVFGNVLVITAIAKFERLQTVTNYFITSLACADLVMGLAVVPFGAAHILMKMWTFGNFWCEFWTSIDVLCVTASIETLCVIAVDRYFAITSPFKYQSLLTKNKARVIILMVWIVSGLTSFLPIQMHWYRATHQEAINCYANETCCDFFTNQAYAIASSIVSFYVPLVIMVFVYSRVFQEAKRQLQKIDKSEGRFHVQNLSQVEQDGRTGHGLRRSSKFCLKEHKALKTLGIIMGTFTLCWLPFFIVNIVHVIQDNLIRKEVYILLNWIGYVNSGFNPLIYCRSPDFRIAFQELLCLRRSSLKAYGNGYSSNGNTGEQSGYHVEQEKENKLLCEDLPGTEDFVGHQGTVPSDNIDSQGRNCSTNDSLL

NTS1 (NT1) (h) = biological target: T6, NTS1 (NT1) (h) (Homo sapiens, UniProt P30989); assay: CEREP panel; format: binding; conditions: read-out: % inhibition NTS1 (NT1) (h)
T6 construct: CEREP (contract assay)
T6 sequence (P30989 whole entry): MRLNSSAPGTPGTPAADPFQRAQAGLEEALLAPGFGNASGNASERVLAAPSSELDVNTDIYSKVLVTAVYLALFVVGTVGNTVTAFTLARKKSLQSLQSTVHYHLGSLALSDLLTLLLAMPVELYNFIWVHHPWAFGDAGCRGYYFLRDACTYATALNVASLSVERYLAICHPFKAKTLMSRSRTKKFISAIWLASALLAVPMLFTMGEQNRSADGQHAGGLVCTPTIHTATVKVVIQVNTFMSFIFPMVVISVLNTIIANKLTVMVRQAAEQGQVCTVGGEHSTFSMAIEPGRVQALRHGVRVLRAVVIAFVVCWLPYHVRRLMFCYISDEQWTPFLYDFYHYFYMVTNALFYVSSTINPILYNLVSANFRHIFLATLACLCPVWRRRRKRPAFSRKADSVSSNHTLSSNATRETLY

PAC1 (PACAP) (h) = biological target: T7, PAC1 (PACAP) (h) (Homo sapiens, UniProt P41586); assay: CEREP panel; format: binding; conditions: read-out: % inhibition PAC1 (PACAP) (h)
T7 construct: CEREP (contract assay)
T7 sequence (P41586 21-468): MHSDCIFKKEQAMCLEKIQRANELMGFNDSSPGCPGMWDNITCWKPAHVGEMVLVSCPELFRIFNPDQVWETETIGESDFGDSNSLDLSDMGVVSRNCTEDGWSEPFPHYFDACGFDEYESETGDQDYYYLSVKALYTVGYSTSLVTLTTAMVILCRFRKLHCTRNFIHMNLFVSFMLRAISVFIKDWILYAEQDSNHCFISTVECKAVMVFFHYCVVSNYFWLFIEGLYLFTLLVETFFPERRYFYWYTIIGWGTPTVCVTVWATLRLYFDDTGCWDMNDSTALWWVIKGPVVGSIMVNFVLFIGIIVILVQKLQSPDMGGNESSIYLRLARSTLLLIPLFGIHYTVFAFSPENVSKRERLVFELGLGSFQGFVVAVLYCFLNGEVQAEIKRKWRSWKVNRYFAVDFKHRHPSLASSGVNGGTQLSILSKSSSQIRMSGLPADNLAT

NK2 (h) = biological target: T8, NK2 (h) (Homo sapiens, UniProt P21452); assay: CEREP panel; format: binding; conditions: read-out: % inhibition NK2 (h)
T8 construct: CEREP (contract assay)
T8 sequence (P21452 1-398): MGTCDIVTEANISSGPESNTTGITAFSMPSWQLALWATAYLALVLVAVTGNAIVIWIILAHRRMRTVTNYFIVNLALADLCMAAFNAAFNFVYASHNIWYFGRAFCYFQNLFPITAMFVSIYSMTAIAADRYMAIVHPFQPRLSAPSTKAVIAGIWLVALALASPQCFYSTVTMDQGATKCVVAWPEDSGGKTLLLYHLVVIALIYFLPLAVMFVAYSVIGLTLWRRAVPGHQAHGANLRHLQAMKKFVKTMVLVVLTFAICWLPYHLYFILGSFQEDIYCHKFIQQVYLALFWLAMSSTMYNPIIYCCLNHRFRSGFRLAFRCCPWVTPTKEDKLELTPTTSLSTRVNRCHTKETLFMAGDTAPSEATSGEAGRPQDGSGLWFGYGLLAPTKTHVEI

mCB2R = mCB2R (Mus musculus, UniProt P47936); assay: Operational analysis of biased signalling
mCB2R, sequence (P47936 whole entry): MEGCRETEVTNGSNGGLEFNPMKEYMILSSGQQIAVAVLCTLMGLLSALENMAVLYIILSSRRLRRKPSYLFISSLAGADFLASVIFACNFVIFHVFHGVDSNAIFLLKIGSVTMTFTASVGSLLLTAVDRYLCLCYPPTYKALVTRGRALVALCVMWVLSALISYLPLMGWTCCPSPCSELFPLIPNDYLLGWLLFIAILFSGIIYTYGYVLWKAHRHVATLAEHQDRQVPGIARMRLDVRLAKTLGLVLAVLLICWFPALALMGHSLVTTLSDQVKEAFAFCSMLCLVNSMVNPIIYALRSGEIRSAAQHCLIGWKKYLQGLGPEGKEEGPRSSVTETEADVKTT

AT2 (h) = biological target: T9, AT2 (h) (Homo sapiens, UniProt P50052); assay: CEREP panel; format: binding; conditions: read-out: % inhibition AT2 (h)
T9 construct: CEREP
T9 sequence (P50052 1-363): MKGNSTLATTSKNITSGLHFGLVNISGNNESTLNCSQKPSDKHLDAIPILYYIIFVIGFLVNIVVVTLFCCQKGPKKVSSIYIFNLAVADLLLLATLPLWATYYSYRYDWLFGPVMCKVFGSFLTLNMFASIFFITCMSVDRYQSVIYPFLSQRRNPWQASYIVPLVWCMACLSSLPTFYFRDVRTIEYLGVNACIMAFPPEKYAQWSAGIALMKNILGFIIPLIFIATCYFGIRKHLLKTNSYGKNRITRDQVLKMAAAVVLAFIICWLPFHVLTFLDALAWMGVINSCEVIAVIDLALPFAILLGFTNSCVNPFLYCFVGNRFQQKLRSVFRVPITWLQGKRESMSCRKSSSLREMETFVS

P2X = assay: CEREP panel; format: binding; conditions: 10 µM
C57BL6/J mice [2] = assay: Triad assay: hypothermia; format: in vivo, mouse; conditions: 1-100 mg kg^−1 i.p., cumulative, mice
MT1 (ML1A) (h) = biological target: T10, MT1 (ML1A) (h) (Homo sapiens, UniProt P48039); assay: CEREP panel; format: binding; conditions: read-out: % inhibition MT1 (ML1A) (h)
T10 construct: CEREP (contract assay)
T10 sequence (P48039 whole entry): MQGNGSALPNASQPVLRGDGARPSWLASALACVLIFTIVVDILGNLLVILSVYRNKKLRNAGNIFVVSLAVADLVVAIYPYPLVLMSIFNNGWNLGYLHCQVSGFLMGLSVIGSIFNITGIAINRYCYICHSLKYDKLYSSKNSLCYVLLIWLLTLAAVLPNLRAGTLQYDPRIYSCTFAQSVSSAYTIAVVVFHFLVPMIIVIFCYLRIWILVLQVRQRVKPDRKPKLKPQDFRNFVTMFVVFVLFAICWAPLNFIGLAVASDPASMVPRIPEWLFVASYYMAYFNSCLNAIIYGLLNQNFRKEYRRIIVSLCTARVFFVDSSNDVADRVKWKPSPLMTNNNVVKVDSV

CCCCCCC(C)(C)c1cc(OC)c([C@@H]2C=C(CO)[C@@H]3C[C@H]2C3(C)C)c(OC)c1 [HU308]
% inhibition PDGF (PDGF): -28% | % inhibition P2Y (P2Y): 1% | inhibition at 10 µM (A2A (h)): 25% | hepatocyte CLint (in vitro): 4.7 µL/min/1e6 cells | solubility kinetic (physchem): < 0.75 µg/mL and < 1.8 µM | inhibition at 10 µM (MC4 (h)): 1% | inhibition at 10 µM (BZD (peripheral)): 12% | catalepsy, cannabimimetic effect (C57BL6/J mice [1]): did not produce detectable; also recorded: lacked appreciable pharmacological effects | inhibition at 10 µM (CB1 (h)): 18% | inhibition at 10 µM (beta 2 (h)): -30% | inhibition at 10 µM (NTS1 (NT1) (h)): -23% | inhibition at 10 µM (PAC1 (PACAP) (h)): -3% | inhibition at 10 µM (NK2 (h)): 68% | GTPγS-cAMP bias factor (BF) (mCB2R): 25.8 | GTPγS-cAMP ΔΔlogR (mCB2R): 1.41 ± 0.27 | LogR GTPγS (mCB2R): 6.77 ± 0.05 | LogR cAMP (mCB2R): 8.07 ± 0.22 | LogR β-AR (mCB2R): 6.22 ± 0.10 | β-AR-GTPγS bias factor (BF) (mCB2R): 0.19 | β-AR-GTPγS ΔΔlogR (mCB2R): -0.72 ± 0.13 | β-AR-cAMP bias factor (BF) (mCB2R): 4.9 | β-AR-cAMP ΔΔlogR (mCB2R): 0.69 ± 0.28 | ΔLogR GTPγS (mCB2R; reference CP55940): -1.04 ± 0.07 | ΔLogR cAMP (mCB2R; reference CP55940): -2.46 ± 0.26 | ΔLogR β-AR (mCB2R; reference CP55940): -1.77 ± 0.12 | RE GTPγS (mCB2R; relative effectiveness): 0.09 | RE cAMP (mCB2R; relative effectiveness): 0.004 | RE β-AR (mCB2R; relative effectiveness): 0.02 | inhibition at 10 µM (AT2 (h)): 42% | % inhibition P2X (P2X): 2% | hypothermia, cannabimimetic effect (C57BL6/J mice [2]): did not produce detectable; also recorded: lacked appreciable pharmacological effects | inhibition at 10 µM (MT1 (ML1A) (h)): -5%
